Measurements as given in the NIST ThermoML archive (doi:10.1021/je5009894).
Numbers after ± are expanded uncertainties.

Test: mn = molality of the nth substance listed, in mol/kg
Details: 298.15 K, 101 kPa, Liquid, Pycnometric method

## O=[N+]([O-])[O-].O=[N+]([O-])[O-].O=[N+]([O-])[O-].[Al+3] [aluminum trinitrate] + O
m1 = 0.5413
  mass density: 1081.6 ± 0.7 kg/m3
m1 = 0.8667
  mass density: 1128.8 ± 0.8 kg/m3
m1 = 1.007
  mass density: 1148.4 ± 0.7 kg/m3
m1 = 1.507
  mass density: 1213.3 ± 0.8 kg/m3
m1 = 2.012
  mass density: 1288.7 ± 0.8 kg/m3
m1 = 2.793
  mass density: 1355.7 ± 0.8 kg/m3

## O=[N+]([O-])[O-].O=[N+]([O-])[O-].O=[N+]([O-])[O-].[Fe+3] [ferric nitrate] + O
m1 = 0.1102
  mass density: 1017.4 ± 0.7 kg/m3
m1 = 0.4672
  mass density: 1079.1 ± 0.8 kg/m3
m1 = 1.183
  mass density: 1194.2 ± 0.8 kg/m3
m1 = 1.476
  mass density: 1235.5 ± 0.8 kg/m3
m1 = 1.907
  mass density: 1293.8 ± 0.8 kg/m3
m1 = 2.442
  mass density: 1363.6 ± 0.8 kg/m3

## O=[N+]([O-])[O-].O=[N+]([O-])[O-].[Mn+2] [manganese nitrate] + O
m1 = 0.0287
  mass density: 1000.9 ± 0.7 kg/m3
m1 = 0.1948
  mass density: 1023 ± 0.7 kg/m3
m1 = 0.5661
  mass density: 1069.9 ± 0.7 kg/m3
m1 = 1.373
  mass density: 1162.1 ± 0.7 kg/m3
m1 = 2.006
  mass density: 1224 ± 0.8 kg/m3
m1 = 3.484
  mass density: 1359 ± 0.8 kg/m3
